In patent publication US20120053076A1, “METHODS FOR IDENTIFICATION” (Cambridge Enterprise Limited, priority 2009, published 2012):
Where two headings read alike, the source gives them in different places.

Columns and labels:
[1] = biological target: type 2 somatostatin receptor (sstr2), human (human) (UniProt P30874); assay: cell-based or functional assay
5HT2a = conditions: rodents, cited from earlier work
leukocytes = assay: Chemokine-induced leukocyte migration (cells not specified); type: cell-based; conditions: description b37, b38
5HT2a receptor = biological target: T1, 5HT2a receptor (Homo sapiens, UniProt P28223); assay: [3H]-ketanserin binding to 5HT2a receptor membranes
T1 construct: purchased Sigma
Experimental: Methods: Radioligand binding experiments were performed with commercially available membrane preparations from cells expressing the 5HT2a receptor (Sigma) in accordance with the manufacturer's instructions. [^3H]-ketanserin was used as the radioligand probe (according to the method of Leysen et al. (1988) Pharmacol. Exp. Therap. 244:310-21) at 1 nM concentration (0.05 μCi per reaction). Experiments were performed in triplicate, and non-specific binding was determined in the presence of an excess (10 μM) of metergoline (a relatively non-specific ergot-derived serotonin receptor antagonist).

Jurkat T cells = assay: SDF-1α induced migration of parental Jurkat T cells; type: cell-based, human
Experimental: Results: The level of the SDF-1α, receptor CXCR4 was similar on Jurkat-D3B and the parental Jurkat T cell line. Furthermore, the Jurkat-D3B cells responded to SDF-1α in a Transwell® chemotaxis assay (see Example 1 for the methodology employed) over a similar concentration range to the parental cell line.
Jurkat T cells and Jurkat-D3B cells were induced to migrate in response to 100 ng/ml SDF-1α (R&D systems; the concentration of SDF-1α which induced maximal cell migration in both lines). The BSCI BN83250 was then added at various concentrations between 0 nM and 1000 nM (each in triplicate) to both the upper and lower compartments (at the same concentration in each compartment, so as not to create a gradient of BSCI concentration). DMSO (1% final concentration) was used as the vehicle, and was present in all wells at equal concentration.

THP-1 cells = assay: MCP-1 induced THP-1 cell migration, Transwell assay; type: cell-based, human; conditions: MCP-1 25 ng/ml
Experimental: Leukocyte migration was measured using the 96-well format micro Transwell® assay system from Neuroprobe (Gaithersburg, Md., USA). In principle, this assay consists of two chambers separated by a porous membrane. The chemoattractant is placed in the lower compartment and the cells are placed in the upper compartment.
The method was performed essentially as previously described (Reckless & Grainger (1999) Biochem. J. 340:803-11).
First, the cell suspension to be placed in the upper compartment was prepared. The THP-1 cells were pelleted by centrifugation (770×g; 4 mins) and washed with Geys Balanced Salt Solution with 1 mg/ml BSA (GBSS+BSA). This wash was then repeated, and the cells re-pelleted before being resuspended in a small volume of GBSS+BSA for counting, for example using a standard haemocytometer.
The volume of GBSS+BSA was then adjusted depending on the number of cells present so that the cells were at final density of 4.45×10^6 cells per ml of GBSS+BSA. This ensured that there were 100,000 THP-1 cells in each 25 μl of the solution to be placed in the upper chamber of the plate.
The suspension of THP-1 cells at 4.45×10^6 cells/ml was divided into three pots. […] To the second pot, the BSCI was added at the same concentration as in the first pot, but additionally the sstr2 antagonist was also added (for example BIM 23454 [Tulipano et al. (2002) 143:1218-24] or BIM 23627 were added at 66 nM final concentration from a stock solution in GBSS). To the third pot, GBSS+BSA plus vehicle as appropriate was added so that the volumes in three pots are equal, acting as a control.
Next, the chemoattractant solution to be placed in the lower compartment was prepared. MCP-1 was diluted in GBSS+BSA to give a final concentration of 25 ng/ml (after all additions). Note that, as recommended by Frow et al (Med. Res. Rev. 24:276-98) this is the concentration of MCP-1 which induces maximal migration in this system. This solution was divided into three pots, as for the cell suspension. To one pot, the BSCI was added to the same final concentration as was added to the cell suspension, in the second pot the BSCI and the sstr2 antagonist were both added at the same concentration as previously added to the cell suspension, while to the remaining pot GBSS+BSA plus vehicle as appropriate was added so that the volumes in the three pots were equal.
Once the chemoattractant solutions for the lower wells and cell solutions for the upper chambers were prepared, the migration chamber was assembled. 29 μl of the appropriate chemoattractant solution was placed into the lower well of the chamber. Assays were performed with at least triplicate determinations of each condition. Once all the lower chambers were filled, the porous membrane was applied to the chamber in accordance with the manufacturer's instructions. Finally, 25 μl of the appropriate cell solution was applied to each upper chamber. A plastic lid was placed over the entire apparatus to prevent evaporation.
The assembled chamber was incubated at 37° C., 5% CO2, for 2 hours.
At the end of the incubation, the liquid cell suspension was gently removed from the upper chamber, 20 μl of ice-cold 20 mM EDTA in PBS was added to the upper chamber, and the apparatus was incubated at 4° C. for 15 mins. This procedure caused any cells adhering to the underside of the membrane to fall into the lower chamber.
After this incubation the filter was carefully flushed with GBSS+BSA to wash off the EDTA, and then the filter was removed.
The number of cells migrated into the lower chamber under each condition can then be determined by a number of methods, including direct counting, labelling with fluorescent or radioactive markers or through the use of a vital dye. Typically, we utilised the vital dye MTT.

α2-adrenoreceptor [2] = conditions: radioligand RS-79948-197; Grainger et al. (2005); read-out: Apparent affinity at α2-adrenoreceptor; cited from earlier work
α2-adrenoreceptor [3] = biological target: T2, α2-adrenoreceptor; assay: [3H]-dihydroergocryptine binding to α2-adrenoreceptor membranes; conditions: 5 nM [3H]-DHE
T2 construct: other: 5 nM [3H]-DHE
Experimental: Methods: Radioligand binding experiments were performed with commercially available membrane preparations from cells expressing the α2-adrenoreceptor (Sigma) in accordance with the manufacturer's instructions. […] Experiments were performed in triplicate, and non-specific binding was determined in the presence of an excess (10 μM) of oxymetazoline.

platelets = assay: ADP-mediated platelet activation/aggregation; type: cell-based
α2-adrenoreceptor [4] = assay: Blood pressure; type: in vivo; conditions: description b37

T1 sequence (P28223 whole entry): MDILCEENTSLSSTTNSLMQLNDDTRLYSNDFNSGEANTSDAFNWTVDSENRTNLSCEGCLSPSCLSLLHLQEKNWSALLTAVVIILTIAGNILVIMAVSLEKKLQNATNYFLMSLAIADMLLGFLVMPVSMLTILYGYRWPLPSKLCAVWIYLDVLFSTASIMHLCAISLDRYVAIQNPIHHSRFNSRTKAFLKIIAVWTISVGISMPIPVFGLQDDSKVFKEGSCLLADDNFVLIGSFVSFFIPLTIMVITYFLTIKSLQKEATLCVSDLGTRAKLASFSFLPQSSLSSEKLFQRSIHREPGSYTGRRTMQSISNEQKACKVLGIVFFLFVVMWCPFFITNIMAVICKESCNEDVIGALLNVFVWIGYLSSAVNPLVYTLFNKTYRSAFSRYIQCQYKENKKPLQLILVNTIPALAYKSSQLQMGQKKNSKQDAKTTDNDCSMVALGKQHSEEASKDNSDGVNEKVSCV
Sequence of type 2 somatostatin receptor (sstr2), human (human) (P30874 whole entry): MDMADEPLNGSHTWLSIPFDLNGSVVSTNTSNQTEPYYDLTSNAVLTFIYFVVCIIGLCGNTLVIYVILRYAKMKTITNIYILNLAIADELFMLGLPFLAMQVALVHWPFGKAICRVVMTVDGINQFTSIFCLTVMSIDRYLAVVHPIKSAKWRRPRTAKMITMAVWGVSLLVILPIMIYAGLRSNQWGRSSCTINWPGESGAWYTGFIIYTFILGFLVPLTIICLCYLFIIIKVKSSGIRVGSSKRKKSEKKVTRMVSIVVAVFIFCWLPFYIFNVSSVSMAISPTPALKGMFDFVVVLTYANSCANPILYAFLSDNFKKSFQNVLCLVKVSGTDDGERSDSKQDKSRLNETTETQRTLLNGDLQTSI

cortistatin (peptide)
ED50 for inhibition of MCP-1 induced THP-1 cell migration [1]: 75 nM

COc1cc(Br)c(OC)c2c1[C@H](CN)C2 [TCB-2]
Head twitching by classical 5HT2a agonists (5HT2a): induce this classical effect
Head twitching by classical 5HT2a agonists (5HT2a; listed as TCB2): powerfully induces head twitch
Effect on chemokine-induced leukocyte migration, in words (leukocytes): no effect on chemokine-induced leukocyte migration

CN1C[C@H](C(=O)O)C=C2c3cccc4[nH]cc(c34)C[C@H]21 [lysergic acid]
Ki (5HT2a receptor): 49 ± 12 nM
Inhibition of SDF-1α induced migration of Jurkat T cells, in words (Jurkat T cells): neither agent inhibits
Inhibition of MCP-1 induced THP-1 cell migration, in words (THP-1 cells): neither agent inhibits

NC(=O)C1CCC[C@H]2CN3CCc4c([nH]c5ccccc45)[C@@H]3C[C@H]12 (stereo partly shown) [Yohimban-16-amide]
Inhibition of SDF-1α induced migration of Jurkat T cells, in words (Jurkat T cells): neither agent inhibits
Ki (α2-adrenoreceptor [2]): 770 nM
Apparent Ka, inhibition of [3H]-DHE binding (α2-adrenoreceptor [3]): 89 ± 13 nM
Effect on ADP-mediated platelet activation/aggregation (platelets): no effect on the activation of platelets in response to ADP

COC(=O)[C@H]1[C@H]2C[C@@H]3c4[nH]c5cc(OC)ccc5c4CCN3C[C@H]2C[C@@H](OC(=O)c2cc(OC)c(OC)c(OC)c2)[C@@H]1OC [reserpine]
Effect on blood pressure (α2-adrenoreceptor [4]): powerfully lowers blood pressure
Effect on chemokine-induced leukocyte migration, in words (leukocytes): no effect on chemokine-induced leukocyte migration
